“And” between values parts separate entries of the source, which are not always exact repeats. Equal entries are not always repeated. Where two headings read alike, the source gives them in different places.
Tests used:
[1] = Cell viability analysis (WST-1), normal pulmonary epithelial cell line BEAS-2B; format: cell-based; details: human, BEAS-2B normal pulmonary epithelial cells, BEAS-2B normal cells
Text: Subculture the different types of cancer cells. The cancer cells lines includes lung cancer, gastric cancer, hepatic cancer, colon cancer, skin cancer, cervical cancer, prostate cancer, bladder cancer, breast cancer, leukemia, pancreatic cancer, ovarian cancer, tongue cancer, osteosarcoma, and renal cancer. The normal cells used in the control group included kidney cell line (HEK293) and human bronchial epithelial cell line BEAS-2B.
(§1) The cell numbers were counted and reseed as 2×10^6 in cell culture plate/flask. Then, the culture medium was added to a volume of 10 ml, and the cells were cultured for 2-3 days. Then, the cells were suspended for loading into 96-well plates. The cell number was 3000/well and the volume of the culture medium was 100 μl each well.
(§2) Removing the original culture medium from 96-well plate. Then add 100 μl of commercially drug at a concentration of 10 μM per well. After 72 hours, add the diluted WST-1 reagent to the well with 100 μl/well, and the diluted WST-1 reagent was acquired from the dilution of 9:1 medium and WST-1 stock reagent. Finally, the total volume of each well was 200 μl/well. Culture the 96-well plate at 37° C. for 30 to 90 minutes. Detecting and calculate the survival rate of each cancer cells with an ELISA reader at OD450 nm.

[2] = tested on: LoVo (Colorectal Adenocarcinoma); test: Cell viability analysis (WST-1), colorectal cancer cell line LoVo; format: cell-based; details: Homo sapiens
Experimental: as §1, §2

skin cancer cell = test: Summary of the effect on skin cancer cell (A375, BCC); format: cell-based; details: Homo sapiens, A-375, skin cancer cell (mean of A375 and BCC averages), 72 hours, read-out: Inhibitory effect
Experimental: as §2

[3] = tested on: BCC (basal cell carcinoma); test: Cell viability analysis (WST-1), skin cancer cell line BCC; format: cell-based
Experimental: as §1, §2

[4] = tested on: LNCap (prostate cancer cell line); test: Cell viability analysis (WST-1), prostate cancer cell line LNCap; format: cell-based; details: Homo sapiens
Experimental: as §1, §2

[5] = tested on: BxPC-3 (pancreatic cancer cell line); test: Cell viability analysis (WST-1), pancreatic cancer cell line BxPC-3; format: cell-based; details: Homo sapiens
Experimental: as §1, §2

[6] = Cell viability analysis (WST-1), normal kidney cell line HEK293; format: cell-based; details: human, HEK293 normal kidney cells
Experimental: as §1, §2

[7] = tested on: T24 (bladder cancer cell line); test: Cell viability analysis (WST-1), bladder cancer cell line T24; format: cell-based; details: T24, 10 μM
Experimental: as §1, §2

[8] = tested on: NIH-OVCAR-3 (ovarian cancer cell line); test: Cell viability analysis (WST-1), ovarian cancer cell line NIH-OVCAR-3; format: cell-based; details: Homo sapiens
Experimental: as §1, §2

[9] = Animal model test of gastric cancer: body weight and survival; format: in vivo, mice (BALB/cAnN.Cg-Foxn1nu/CrlNarl); details: for weight: individual mice A, B, C
Experimental: In this invention, the female mice were (BALB/cAnN.Cg-Foxn1^nu/CrlNarl) purchased from National Laboratory Animal Center (Taiwan)). The weight of the mice were 21±1 g. These mice were subcutaneously injected with gastric cancer cells (AGS) and then put these mice into different cages at random. The drug test experiment was divided into three groups, include “control group”, “low dose group (100 mg/kg/day)”, and “high dose group (200 mg/kg/day)”. These mice were then injected test drug intraperitoneally once daily […]. The tumor sizes and body weight were measured twice a week. The tumor sizes were measured and calculated by formula: (L×W^2)/2. L represents the tumor longest length. W represents the tumor shortest diameter.

hepatic cancer cell = test: Summary of the effect on hepatic cancer cell (HepG2, Hep3B); format: cell-based; details: hepatic cancer cell (mean of HepG2 and Hep3B averages), 72 hours, read-out: Inhibitory effect
Experimental: as §2

[10] = tested on: 786-O (Renal adenocarcinoma); test: Cell viability analysis (WST-1), renal cancer cell line 786-O; format: cell-based; details: Homo sapiens
Experimental: as §1, §2

various cancer cells = test: Inhibition test on all kinds of cancer cells (overall statement); format: cell-based; details: FIG. 1
Experimental: as §2

[11] = average of 4 tests, read-out: inhibition effect (survival rate of cells), average
[12] = 72 h, average of 4 tests, read-out: inhibition effect (survival rate of cells), average

Oc1ccc(OCc2ccccc2)cc1 [Monobenzone]
viability at 72 h, 10 µM [1, 11]: 73.8% | viability at 72 h, 10 µM ([1]; test 0510-10 min, read-out: inhibition effect (survival rate of cells)): 84.7% | viability at 72 h, 10 µM ([1]; test 0512-10 min, read-out: inhibition effect (survival rate of cells)): 79.5% | viability at 72 h, 10 µM ([1]; test 0515-10 min, read-out: inhibition effect (survival rate of cells)): 74.9% | viability at 72 h, 10 µM ([1]; test 0517-10 min, read-out: inhibition effect (survival rate of cells)): 56.2% | viability at 10 µM [2, 12]: 83% | viability at 10 µM ([2]; 72 hours, test 0616-10 min, read-out: inhibition effect (survival rate of cells)): 82.3% | viability at 10 µM ([2]; 72 hours, test 0619-10 min, read-out: inhibition effect (survival rate of cells)): 73.9% | viability at 10 µM ([2]; 72 hours, test 0621-10 min, read-out: inhibition effect (survival rate of cells)): 94.7% | viability at 10 µM ([2]; 72 hours, test 0623-10 min, read-out: inhibition effect (survival rate of cells)): 81.3% | viability at 10 µM (skin cancer cell): 63.2% | viability at 10 µM ([3]; 72 h, average of 4 tests, read-out: inhibition effect (survival rate of cells), Average): 50.1% | viability at 10 µM ([3]; 72 hours, test 0602-30 min, read-out: inhibition effect (survival rate of cells)): 48.2% | viability at 10 µM ([3]; 72 hours, test 0605-10 min, read-out: inhibition effect (survival rate of cells)): 59.8% | viability at 10 µM ([3]; 72 hours, test 0607-10 min, read-out: inhibition effect (survival rate of cells)): 38.6% | viability at 10 µM ([3]; 72 hours, test 0609-10 min, read-out: inhibition effect (survival rate of cells)): 53.8% | viability at 10 µM [4, 12]: 67.9% | viability at 10 µM ([4]; 72 hours, test LNCap-1-10 min, read-out: inhibition effect (survival rate of cells)): 65.5% | viability at 10 µM ([4]; 72 hours, test LNCap-2-20 min, read-out: inhibition effect (survival rate of cells)): 52.7% | viability at 10 µM ([4]; 72 hours, test LNCap-3-20 min, read-out: inhibition effect (survival rate of cells)): 81.6% | viability at 10 µM ([4]; 72 hours, test LNCap-4-20 min, read-out: inhibition effect (survival rate of cells)): 71.6% | viability at 10 µM ([5]; BXPC-3, 72 h, BxPC-3, 10 μM, average of 4 tests, read-out: inhibition effect (survival rate of cells), average): 78.6% | viability at 10 µM ([5]; BXPC-3, BxPC-3, 10 μM, 72 hours, test 3-4-30 min, read-out: inhibition effect (survival rate of cells)): 86.3% | viability at 10 µM ([5]; BXPC-3, BxPC-3, 10 μM, 72 hours, test 3-7-3-30 min, read-out: inhibition effect (survival rate of cells)): 57.4% | viability at 10 µM ([5]; BXPC-3, BxPC-3, 10 μM, 72 hours, test 3-7-4-30 min, read-out: inhibition effect (survival rate of cells)): 100% | viability at 10 µM ([5]; BXPC-3, BxPC-3, 10 μM, 72 hours, test 3-7-7-30 min, read-out: inhibition effect (survival rate of cells)): 70.7% | viability at 72 h, 10 µM [6, 11]: 93% | viability at 72 h, 10 µM ([6]; test 0602-30 min, read-out: inhibition effect (survival rate of cells)): 82.7% | viability at 72 h, 10 µM ([6]; test 0605-30 min, read-out: inhibition effect (survival rate of cells)): 99.4% | viability at 72 h, 10 µM ([6]; test 0607-30 min, read-out: inhibition effect (survival rate of cells)): 97.9% | viability at 72 h, 10 µM ([6]; test 0609-30 min, read-out: inhibition effect (survival rate of cells)): 91.8% | viability at 10 µM [7, 12]: 87% | viability at 10 µM ([7]; 72 hours, test T24-1-30 min, read-out: inhibition effect (survival rate of cells)): 93.5% | viability at 10 µM ([7]; 72 hours, test T24-2-20 min, read-out: inhibition effect (survival rate of cells)): 70.4% | viability at 10 µM ([7]; 72 hours, test T24-3-20 min, read-out: inhibition effect (survival rate of cells)): 89.4% | viability at 10 µM ([7]; 72 hours, test T24-4-20 min, read-out: inhibition effect (survival rate of cells)): 94.7% | viability at 10 µM ([8]; OVCAR-3, 72 h, NIH-OVCAR-3, 10 μM, average of 4 tests, read-out: inhibition effect (survival rate of cells), average): 91.5% | viability at 10 µM ([8]; OVCAR-3, NIH-OVCAR-3, 10 μM, 72 hours, test 7-3-30 min, read-out: inhibition effect (survival rate of cells)): 88.3% | viability at 10 µM ([8]; OVCAR-3, NIH-OVCAR-3, 10 μM, 72 hours, test 7-4-30 min, read-out: inhibition effect (survival rate of cells)): 96.6% | viability at 10 µM ([8]; OVCAR-3, NIH-OVCAR-3, 10 μM, 72 hours, test 7-7-30 min, read-out: inhibition effect (survival rate of cells)): 88.3% | viability at 10 µM ([8]; OVCAR-3, NIH-OVCAR-3, 10 μM, 72 hours, test −4-30 min, read-out: inhibition effect (survival rate of cells)): 92.7% | health status / death of tested mice during the treatment (in words) ([9]; both high and low doses): healthy status during the treatment without death | weight of mice during the experiment (in words) ([9]; both low dose and high dose, FIG. 2): did not show a significant decrease | weight ([9]; high dose (200 mg/kg/day) i.p. once daily, Fifth measurement, 200 mg/kg/day): 20 g (2×) and 21 g | weight ([9]; high dose (200 mg/kg/day) i.p. once daily, First measurement, 200 mg/kg/day): 20 g (2×) and 19.5 g | weight ([9]; high dose (200 mg/kg/day) i.p. once daily, Fourth measurement, 200 mg/kg/day): 20 g (2×) and 21 g | weight ([9]; high dose (200 mg/kg/day) i.p. once daily, Second measurement, 200 mg/kg/day): 19 g (2×) and 20 g | weight ([9]; high dose (200 mg/kg/day) i.p. once daily, Third measurement, 200 mg/kg/day): 20.5 g and 19 g and 20 g | weight ([9]; low dose (100 mg/kg/day) i.p. once daily, Fifth measurement, 100 mg/kg/day): 20 g (2×) and 21 g | weight ([9]; low dose (100 mg/kg/day) i.p. once daily, First measurement): 21 g | weight ([9]; low dose (100 mg/kg/day) i.p. once daily, Fourth measurement, 100 mg/kg/day): 20 g (2×) and 21 g | weight ([9]; low dose (100 mg/kg/day) i.p. once daily, Second measurement, 100 mg/kg/day): 20 g (2×) and 19 g | weight ([9]; low dose (100 mg/kg/day) i.p. once daily, Third measurement, 100 mg/kg/day): 19.5 g and 19 g and 18.5 g | viability at 10 µM (hepatic cancer cell): 95.4% | viability at 10 µM ([10]; 786-0, 786-O, 72 hours, test 0524-10 min, read-out: inhibition effect (survival rate of cells)): 39.8% | viability at 10 µM ([10]; 786-0, 786-O, 72 hours, test 0526-10 min, read-out: inhibition effect (survival rate of cells)): 32.4% | viability at 10 µM ([10]; 786-0, 786-O, 72 hours, test 0529-10 min, read-out: inhibition effect (survival rate of cells)): 21.2% | viability at 10 µM ([10]; 786-0, 786-O, 72 hours, test 0531-10 min, read-out: inhibition effect (survival rate of cells)): 23.4% | viability at 10 µM ([10]; 786-0, 72 h, 786-O, average of 4 tests, read-out: inhibition effect (survival rate of cells), average): 29.2% | viability at 10 µM ([10]; 786-0, 72 h, Kidney cancer cell (786-O average), read-out: Inhibitory effect): 29.2% | inhibitory effect and specificity on various cancer cells (in words) (various cancer cells): significant inhibitory effect and specificity on various cancer cells
